This is an account of results in the NIST ThermoML archive (doi:10.1021/je600575r).

This data set can be described thus: Solid-liquid equilibrium temperature. The note with it: Crystal, visual observation.

± gives the expanded uncertainty stated by the source.

As to `CCCCCCCCCCCCCCCC1CCCCC1` [cyclohexane, pentadecyl-], the Solid-liquid equilibrium temperature (100 kPa) was 298.1 ± 1.1 K; the Solid-liquid equilibrium temperature (19300 kPa) is 302.6 ± 1.1 K; the Solid-liquid equilibrium temperature (40000 kPa) is 307.6 ± 1.1 K; the Solid-liquid equilibrium temperature (60100 kPa) was 312.3 ± 1.1 K; the Solid-liquid equilibrium temperature (80300 kPa) came to 316.8 ± 1.1 K; the Solid-liquid equilibrium temperature (100100 kPa) worked out at 320.8 ± 1.1 K.

Turning to `CCCCCCCCCCCCCC1CCCCC1` [cyclohexane, tridecyl-], the Solid-liquid equilibrium temperature turned out to be 286.9 ± 1.1 K (100 kPa); 291.7 ± 1.1 K (20000 kPa); 296.3 ± 1.1 K (40200 kPa); 300.7 ± 1.1 K (60000 kPa); 304.9 ± 1.1 K (80100 kPa); 309.1 ± 1.1 K (100000 kPa).

Turning to `CCCCCCCCCCC1CCCCC1` [decylcyclohexane], the Solid-liquid equilibrium temperature (100 kPa) was found to be 271.3 ± 0.5 K; the Solid-liquid equilibrium temperature (20000 kPa) is reported as 276 ± 0.5 K; the Solid-liquid equilibrium temperature (40100 kPa) is on record as 280.5 ± 0.6 K; the Solid-liquid equilibrium temperature (59900 kPa) stood at 284.8 ± 0.6 K; the Solid-liquid equilibrium temperature (80100 kPa) is on record as 289.2 ± 0.6 K; the Solid-liquid equilibrium temperature (100100 kPa) came out at 293.9 ± 0.6 K.

`CCCCCCCCCCCCC1CCCCC1` [dodecylcyclohexane]: the Solid-liquid equilibrium temperature by setting is: (100 kPa) 285.8 ± 0.5 K; (19500 kPa) 290.6 ± 0.6 K; (39600 kPa) 295.2 ± 0.6 K; (60900 kPa) 299.9 ± 0.6 K; (79900 kPa) 304.2 ± 0.6 K; (100000 kPa) 308.4 ± 0.6 K.

For `CCCCCCCCCCCCCCCCCCCC1CCCCC1` [nonadecylcyclohexane], the Solid-liquid equilibrium temperature is listed as 315.7 ± 0.7 K (100 kPa); 320.6 ± 0.7 K (19800 kPa); 324.8 ± 0.7 K (39500 kPa); 329.2 ± 0.7 K (59800 kPa); 333.7 ± 0.7 K (78000 kPa).

For the molecule `CCCCCCCCCCCCCCCCCCC1CCCCC1` [octadecylcyclohexane], the Solid-liquid equilibrium temperature was found to be 314.3 ± 1.1 K (100 kPa), 319.3 ± 1.1 K (20000 kPa), 324.2 ± 1.1 K (39900 kPa) and 328.8 ± 1.1 K (59600 kPa).

Take `CCCCCCCCCCCCCCC1CCCCC1` [tetradecylcyclohexane]: the Solid-liquid equilibrium temperature reads like this: (100 kPa) 297.2 ± 0.9 K; (20000 kPa) 302.2 ± 0.9 K; (39900 kPa) 307 ± 0.9 K; (60000 kPa) 311.5 ± 0.9 K; (79900 kPa) 316 ± 0.9 K; (100100 kPa) 320.3 ± 1 K.

For `CCCCCCCCCCCC1CCCCC1` [undecane, 1-cyclohexyl-], the Solid-liquid equilibrium temperature was 272.4 ± 0.8 K (100 kPa); 276.8 ± 0.8 K (20000 kPa); 281.3 ± 0.8 K (40000 kPa); 285.7 ± 0.9 K (60000 kPa); 289.9 ± 0.9 K (80500 kPa); 293.9 ± 0.9 K (100000 kPa).
